Read-outs that look alike come from different tables or passages of the source.
Experiments:
[1] = target: T1, human CK2 holoenzyme (Homo sapiens, UniProt P68400); settings: recombinant human CK2, compounds published before, cited from earlier work; for Tested pIC50: pIC50 = -logIC50
T1 construct: made in house; host or cells: Escherichia coli

[2] = target: T1, human CK2 holoenzyme; experiment: biochemical; settings: newly synthesized indeno[1,2-b]indoles
[3] = system: MCF-7 cells; experiment: MTT cell viability assay; type: cell-based, human; settings: for reduction of cell viability: after 24 h and 48 h
Protocol: The effect of the four naphtho[2,3-b]furan-4,9-dione derivatives on cell viability was evaluated using an MTT assay with MCF-7 cells (human breast adenocarcinoma cell line). […]. It is important to note that some compounds with a naphtho[2,3-b]furan-4,9-dione backbone are known to have anticancer effects and are highly cytotoxic, and other natural naphtho[2,3-b]furan-4,9-dione derivatives, which are found in the lapacho (Tabebuia) tree, are known to have different biological activities, such as antibacterial, antifungal, anti-inflammatory, and antitumor activities.
Bars represent the mean values of three measurements (n = 3). Error bars illustrate the corresponding standard deviations (± SD).
The effect of CK2 inhibitors on the viability of MCF-7 cells was evaluated using an MTT assay. MCF-7 breast cancer cells (kindly provided by the Department of Clinical Radiology of the University Hospital Muenster, Germany) were cultured in RPMI 1640 medium containing GlutaMax (Life Technologies, Darmstadt, Germany) and 10% fetal calf serum. The MTT assay was performed in 96-well plates. Cells were seeded at a density of 1 × 10^5 cells per well, then incubated […] at 37 °C in a humidified atmosphere (5% CO2). After overnight incubation, the seeding medium was removed and replaced with fresh medium containing the inhibitor at 0.01, 0.1, 1, and 10 μM. DMSO at a final concentration of 1% served as a control. Afterward, the MTT reagent (Sigma Aldrich, Darmstadt, Germany) was added at a final concentration of 0.5 mg/mL. After incubation for 2 h at 37 °C, the medium was discarded and 200 µL DMSO was added for the solubilization of the formazan. After mixing, the absorption was determined at 570 nm with a reference wavelength of 630 nm using a microplate reader. CK2 inhibitors were tested in triplicate, and the experiments were repeated three times.

[4] = Tested pIC50, recombinant human CK2, pIC50 = -logIC50
[5] = Tested IC50, recombinant human CK2
[6] = recombinant human CK2, read-out: Tested IC50
[7] = recombinant human CK2, pIC50 = -logIC50, read-out: Tested pIC50 (converted)

T1 sequence (P68400 whole entry): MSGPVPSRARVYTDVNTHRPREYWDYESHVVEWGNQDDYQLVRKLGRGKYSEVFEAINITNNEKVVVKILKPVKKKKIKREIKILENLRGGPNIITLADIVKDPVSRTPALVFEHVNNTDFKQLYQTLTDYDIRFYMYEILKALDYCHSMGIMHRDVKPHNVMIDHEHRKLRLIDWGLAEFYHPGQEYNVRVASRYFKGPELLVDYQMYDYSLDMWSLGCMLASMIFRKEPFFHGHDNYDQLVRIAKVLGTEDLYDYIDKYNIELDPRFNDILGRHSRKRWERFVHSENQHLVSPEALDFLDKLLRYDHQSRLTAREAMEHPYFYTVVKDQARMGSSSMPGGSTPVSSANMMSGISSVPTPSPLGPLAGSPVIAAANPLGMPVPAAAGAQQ
T1 sequence (P67870 whole entry partner): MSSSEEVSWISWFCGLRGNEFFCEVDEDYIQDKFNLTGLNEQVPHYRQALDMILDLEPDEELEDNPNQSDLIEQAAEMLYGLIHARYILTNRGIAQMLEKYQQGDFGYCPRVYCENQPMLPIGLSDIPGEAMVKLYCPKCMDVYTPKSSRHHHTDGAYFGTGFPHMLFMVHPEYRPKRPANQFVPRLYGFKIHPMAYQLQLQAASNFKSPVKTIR

SMILES: COc1ccccc1CCn1c2c(c3c1-c1ccccc1C3=O)C(=O)CCC2 [4e]
- IC50 ([1]; read-out: Tested IC50): 1400 nM
- Tested pIC50 [1]: 5.8540

SMILES: Cc1cccc2c1C(=O)c1c3c(n(C(C)C)c1-2)CCCC3=O [4h, 5-isopropyl-1-methyl-5,6,7,8-tetrahydroindeno[1,2-b]indole-9,10-dione]
- melting point: 235 °C
- IC50 [2, 4]: 110 nM

SMILES: CC(C)n1c2c(c3c1-c1cccc(C(F)(F)F)c1C3=O)C(=O)CCC2 [4i]
- IC50 [2, 4]: 210 nM

SMILES: CC(C)n1c2c(c3c1-c1cccc(Br)c1C3=O)C(=O)CCC2 [4j]
- IC50 [2, 4]: 140 nM

SMILES: COC(=O)COc1ccc2c(c1)-c1c(c3c(n1C(C)C)CCCC3=O)C2=O [4p]
- IC50 [2, 5]: 1520 nM
- IC50 [2, 4]: 1520 nM

SMILES: CC(=O)Oc1ccc2c(c1)-c1c(c3c(n1C(C)C)CCCC3=O)C2=O [4q]
- IC50 [2, 5]: 3210 nM
- IC50 [2, 4]: 3210 nM

SMILES: COC(=O)CCCOc1ccc2c(c1)-c1c(c3c(n1C(C)C)CCCC3=O)C2=O [4r]
- IC50 [2, 4]: 520 nM

SMILES: CC(C)n1c2c(c3c1-c1cc(OCCCC(=O)O)ccc1C3=O)C(=O)CCC2 [4s]
- IC50 [2, 4]: 1510 nM

SMILES: CC(C)n1c2c(c3c1-c1cc(Br)cc(Br)c1C3=O)C(=O)CCC2 [4w, 1,3-dibromo-5-isopropyl-5,6,7,8-tetrahydroindeno[1,2-b]indole-9,10-dione]
- melting point: 276 °C
- IC50 [2, 4]: 110 nM

SMILES: CC(C)C1CC(=O)c2c3c(n(C(C)C)c2C1)-c1ccccc1C3=O (centres unmarked) [4y]
- Tested pIC50 [1]: 6.2150

SMILES: O=C1c2ccccc2-c2[nH]c3cccc(O)c3c21 [5a]
- IC50 [2, 6]: 2220 nM
- IC50 [2, 7]: 2220 nM

SMILES: O=c1ccc(=O)c2c1[nH]c1c3ccccc3c(=O)c12 [6a]
- IC50 [2, 6]: 1780 nM
- IC50 [2, 7]: 1780 nM

SMILES: Cn1c2c(=O)ccc(=O)c2c2c(=O)c3ccccc3c21 [6b]
- IC50 [2, 5]: 1120 nM
- IC50 [2, 4]: 1120 nM

SMILES: CCn1c2c(=O)ccc(=O)c2c2c(=O)c3ccccc3c21 [6c]
- IC50 [2, 6]: 1580 nM

SMILES: CC(C)n1c2c(=O)ccc(=O)c2c2c(=O)c3c(Br)cccc3c21 [6d]
- IC50 [2, 6]: 1350 nM
- IC50 [2, 7]: 1350 nM

SMILES: COc1ccc2c(=O)c3c4c(=O)ccc(=O)c4n(C(C)C)c3c2c1 [6e]
- IC50 [2, 5]: 4160 nM
- IC50 [2, 4]: 4160 nM

SMILES: COc1cccc2c(=O)c3c4c(=O)ccc(=O)c4n(C(C)C)c3c12 [6f]
- IC50 [2, 6]: 870 nM
- IC50 [2, 7]: 871 nM

SMILES: Cc1cc(=O)c2c3c(=O)c4ccccc4c3n(C(C)C)c2c1=O [6g]
- Tested pIC50 [1]: 6.3660

SMILES: Cc1oc2c(c1C(=O)NCCC(C)C)C(=O)c1ccccc1C2=O [compound 00082235, N-isopentyl-2-methyl-4,9-dioxo-4,9-dihydronaphtho[2,3-b]furan-3-carboxamide]
- reduction of cell viability ([3]; MCF-7, 10 µM): more than 90%

SMILES: Cc1oc2c(c1C(=O)N1CCOCC1)C(=O)c1ccccc1C2=O [compound 01236034, 2-methyl-3(morpholine-4-carbonyl)naphto[2,3-b] furan-4,9-dione]
- cell viability reduced to ([3]; MCF-7, 10 µM, after 48 h): 60%

SMILES: Cc1oc2c(c1C(=O)NCCCn1ccnc1)C(=O)c1ccccc1C2=O [compound 01893208, 1-(3-(2-methyl-4,9-dioxo-4,9-dihydronaphtho[2,3-b]furan-3-carboxamido)propyl)-1H-imidazol-3-ium]
- reduction of cell viability ([3]; MCF-7, 1 µM): around 90%
- reduction of cell viability ([3]; MCF-7, 10 µM): more than 90%

SMILES: Cc1oc2c(c1C(=O)NCc1cccnc1)C(=O)c1ccccc1C2=O [compound 37867960, 2-methyl-4,9-dioxo-N-(pyridin-3-ylmethyl)-4,9-dihydronaphtho[2,3-b]furan-3-carboxamide]
- reduction of cell viability ([3]; MCF-7, 1 µM): around 90%
- reduction of cell viability ([3]; MCF-7, 10 µM): more than 90%

From publication PMC6982966 (Molecules, 2019)
